Experimental data as given in the NIST ThermoML archive (doi:10.1016/j.jct.2003.11.008).

What was measured:
[1] = 318.15 K; 101.33 kPa; Liquid; Vibrating tube method
[2] = refractive index (Na D-line) (dimensionless); settings: 318.15 K; 101.33 kPa; Liquid; Standard Abbe refractometry
[3] = xn = mol fraction of the nth substance listed; settings: 318.15 K, 101.3 kPa, Liquid
[4] = excess molar enthalpy (molar enthalpy of mixing); xn = mol fraction of the nth substance listed; settings: 318.15 K, 101.3 kPa, Liquid

COC(C)=O [methyl ethanoate]
Settings	mass density [kg/m3]	refractive index
[1]	900.1	–
[2]	–	1.349

CCOC(C)=O [ethyl acetate]
Settings	mass density [kg/m3]	refractive index
[1]	869.54	–
[2]	–	1.3597

CCCOC(C)=O [propyl ethanoate] + CCCCCCC
Settings	excess molar enthalpy [kcal/mol]	excess molar volume [m3/mol]
[3], x1 = 0.0727	–	3.32e-07
[3], x1 = 0.1288	–	4.98e-07
[3], x1 = 0.1829	–	6.45e-07
[3], x1 = 0.2463	–	7.68e-07
[3], x1 = 0.2995	–	8.38e-07
[3], x1 = 0.3536	–	8.87e-07
[3], x1 = 0.404	–	9.09e-07
[3], x1 = 0.463	–	9.23e-07
[3], x1 = 0.5069	–	9.1e-07
[3], x1 = 0.5618	–	8.85e-07
[3], x1 = 0.6574	–	7.96e-07
[3], x1 = 0.6914	–	7.52e-07
[3], x1 = 0.7928	–	5.61e-07
[3], x1 = 0.8765	–	3.62e-07
[3], x1 = 0.9436	–	1.75e-07
[4], x1 = 0.0692	0.0826	–
[4], x1 = 0.1449	0.151	–
[4], x1 = 0.2229	0.211	–
[4], x1 = 0.2968	0.251	–
[4], x1 = 0.3635	0.278	–
[4], x1 = 0.4256	0.292	–
[4], x1 = 0.484	0.295	–
[4], x1 = 0.535	0.291	–
[4], x1 = 0.5539	0.284	–
[4], x1 = 0.6002	0.27	–
[4], x1 = 0.6528	0.251	–
[4], x1 = 0.6987	0.228	–
[4], x1 = 0.7526	0.198	–
[4], x1 = 0.8089	0.158	–
[4], x1 = 0.8635	0.118	–
[4], x1 = 0.9048	0.0847	–
[4], x1 = 0.9537	0.0443	–

CCCCCCCCCCCCCCCCC [heptadecane] + COC(C)=O
Settings	excess molar enthalpy [kcal/mol]	excess molar volume [m3/mol]
[3], x2 = 0.0872	–	4.73e-07
[3], x2 = 0.1719	–	9e-07
[3], x2 = 0.2901	–	1.422e-06
[3], x2 = 0.3832	–	1.742e-06
[3], x2 = 0.4682	–	1.916e-06
[3], x2 = 0.5391	–	1.999e-06
[3], x2 = 0.5988	–	2.022e-06
[3], x2 = 0.6524	–	1.981e-06
[3], x2 = 0.694	–	1.916e-06
[3], x2 = 0.7348	–	1.806e-06
[3], x2 = 0.7632	–	1.698e-06
[3], x2 = 0.8016	–	1.579e-06
[3], x2 = 0.827	–	1.455e-06
[3], x2 = 0.8469	–	1.363e-06
[3], x2 = 0.8704	–	1.246e-06
[3], x2 = 0.9208	–	9.07e-07
[3], x2 = 0.9545	–	5.89e-07
[3], x2 = 0.9807	–	2.74e-07
[4], x2 = 0.113	0.176	–
[4], x2 = 0.2193	0.327	–
[4], x2 = 0.3028	0.434	–
[4], x2 = 0.3894	0.521	–
[4], x2 = 0.4626	0.576	–
[4], x2 = 0.5247	0.606	–
[4], x2 = 0.5794	0.615	–
[4], x2 = 0.6278	0.607	–
[4], x2 = 0.6655	0.593	–
[4], x2 = 0.6858	0.582	–
[4], x2 = 0.7195	0.56	–
[4], x2 = 0.7539	0.528	–
[4], x2 = 0.7883	0.489	–
[4], x2 = 0.8246	0.444	–
[4], x2 = 0.861	0.398	–
[4], x2 = 0.8938	0.346	–
[4], x2 = 0.9264	0.29	–
[4], x2 = 0.9502	0.236	–
[4], x2 = 0.9763	0.145	–

CCCCCCCCCCC [undecane] + COC(C)=O
Settings	excess molar enthalpy [kcal/mol]	excess molar volume [m3/mol]
[3], x2 = 0.1232	–	7.69e-07
[3], x2 = 0.2463	–	1.347e-06
[3], x2 = 0.3266	–	1.58e-06
[3], x2 = 0.3942	–	1.734e-06
[3], x2 = 0.4679	–	1.879e-06
[3], x2 = 0.5333	–	1.922e-06
[3], x2 = 0.5823	–	1.908e-06
[3], x2 = 0.6365	–	1.851e-06
[3], x2 = 0.68	–	1.765e-06
[3], x2 = 0.7221	–	1.676e-06
[3], x2 = 0.76	–	1.554e-06
[3], x2 = 0.7954	–	1.415e-06
[3], x2 = 0.8183	–	1.337e-06
[3], x2 = 0.8875	–	9.9e-07
[3], x2 = 0.935	–	6.43e-07
[3], x2 = 0.9683	–	3.52e-07
[4], x2 = 0.1	0.161	–
[4], x2 = 0.203	0.297	–
[4], x2 = 0.2975	0.406	–
[4], x2 = 0.3707	0.475	–
[4], x2 = 0.4315	0.516	–
[4], x2 = 0.4836	0.538	–
[4], x2 = 0.528	0.547	–
[4], x2 = 0.5612	0.549	–
[4], x2 = 0.5935	0.548	–
[4], x2 = 0.6178	0.544	–
[4], x2 = 0.6538	0.533	–
[4], x2 = 0.6915	0.517	–
[4], x2 = 0.7306	0.494	–
[4], x2 = 0.769	0.463	–
[4], x2 = 0.8102	0.418	–
[4], x2 = 0.851	0.37	–
[4], x2 = 0.888	0.299	–
[4], x2 = 0.9283	0.223	–
[4], x2 = 0.9664	0.124	–

CCCCCCC [heptane]
Settings	mass density [kg/m3]	refractive index
[1]	662.04	–
[2]	–	1.3748

CCCCCCCCCCCCCCC [pentadecane] + CCOC(C)=O
Settings	excess molar enthalpy [kcal/mol]	excess molar volume [m3/mol]
[3], x2 = 0.0932	–	4.44e-07
[3], x2 = 0.1272	–	5.87e-07
[3], x2 = 0.2314	–	9.83e-07
[3], x2 = 0.3237	–	1.237e-06
[3], x2 = 0.4048	–	1.412e-06
[3], x2 = 0.465	–	1.483e-06
[3], x2 = 0.5427	–	1.54e-06
[3], x2 = 0.5987	–	1.536e-06
[3], x2 = 0.6373	–	1.512e-06
[3], x2 = 0.6957	–	1.432e-06
[3], x2 = 0.7643	–	1.293e-06
[3], x2 = 0.8273	–	1.104e-06
[3], x2 = 0.8926	–	8.05e-07
[3], x2 = 0.9375	–	5.48e-07
[3], x2 = 0.9714	–	2.73e-07
[4], x2 = 0.0901	0.134	–
[4], x2 = 0.1777	0.244	–
[4], x2 = 0.2582	0.339	–
[4], x2 = 0.3339	0.41	–
[4], x2 = 0.397	0.456	–
[4], x2 = 0.4609	0.489	–
[4], x2 = 0.5093	0.505	–
[4], x2 = 0.5557	0.511	–
[4], x2 = 0.6033	0.509	–
[4], x2 = 0.6563	0.495	–
[4], x2 = 0.6935	0.48	–
[4], x2 = 0.7292	0.457	–
[4], x2 = 0.7706	0.424	–
[4], x2 = 0.813	0.384	–
[4], x2 = 0.8538	0.332	–
[4], x2 = 0.8958	0.273	–
[4], x2 = 0.9283	0.21	–
[4], x2 = 0.9676	0.115	–

CCCCCCCCC [nonane]
Settings	mass density [kg/m3]	refractive index
[1]	698.06	–
[2]	–	1.3939
